From patent US20190300845A1, “SEQUENTIAL ADDITION OF MOLECULAR GERMINANTS TO BACTERIAL SPORES” (NOVOZYMES BIOAG A/S, priority 2016, published 2019)

Columns and labels:
[1] = tested on: spores from Bacillus megaterium strain SB3112; assay: Germinant testing by decrease in relative OD580; assay type: cell-based; conditions: amino acid along with KBr and D-glucose; each 3 mM
[2] = tested on: spores from Bacillus pumilus strain SB3189; assay: Germinant testing by decrease in relative OD580; assay type: cell-based; conditions: substance alone, at a concentration of 3 mM
[3] = tested on: Bacillus subtilis strain SB3086 spores; assay: Sequential germinant addition, germination by dipicolinic acid (DPA) release (Tb-DPA fluorescence); assay type: cell-based
Protocol: Bacterial spores from Bacillus subtilis strain SB3086 were prepared as described in the first paragraph of Example 1. The spore preparations were washed in sterile 4° C. water by centrifugation (10,000×g, 1 minute), aspirating the supernatant from the pellet, and suspending the spore pellet in water. This was performed three consecutive times. Optical densities of washed spore preparations were measured in sterile water at 4° C. using a Synergy H4 Multi-Mode Reader (Bio-Tek). The spore preparations were set to 5 OD600 units per ml. By phase-contrast microscopy, 99% of the particles in the samples appeared to be ungerminated spores.
The spores were then treated with 1 mM of L-alanine for 24 hours at 4° C. […] In one experiment, spores that had been treated with 1 mM L-alanine for 24 hours were washed in water to remove the L-alanine. Negative controls were not treated with L-alanine. Spores to be used as positive controls were boiled for 2 hours to release dipicolinic acid (see below).
(§1) Germination of spores in these studies was determined by measuring dipicolinic acid (DPA). DPA is about 10% of the mass of endospores, which is generally released when germination occurs. Boiling spores generally releases all of the DPA (used as a positive control). DPA release was detected using terbium chloride (TbCl3), as described below.
(§2) To perform the germination assays, 30 μl of spores were added to wells of a 96-well flat-bottom microtiter plate. Subsequently, 35 μl of a 250 μM TbCl3 stock was added. At time 0, 85 μl of a D-fructose solution was added, to give a final concentration of 10 mM D-fructose. The solution was mixed by pipetting, the microtiter plate was placed into a plate reader (Synergy H4 Multi-Mode Reader, Bio-Tek), and the sample wells were measured for presence of a fluorescent Tb-DPA product over time. Tb-DPA is excited at 270 nm and emits at 545 nm. All experimental samples were tested in triplicate. Baseline controls for each sample were generated by omitting L-alanine and these were performed in duplicate. All sample wells were measured immediately after D-fructose was added (time 0) and then over time. For each time point, the data were normalized to values for the spores that had been boiled for two hours to force 100% release of DPA from the spores.

[4] = tested on: Bacillus pumilus strain SB3189 spores; assay: as above; assay type: cell-based
Protocol: as §1, §2
The experiment was generally performed as described in Example 3. SB3189 spores were treated with various concentrations of L-alanine (0.0 mM, 0.5 mM, 1.0 mM, 2.0 mM, 3.0 mM, 4.0 mM, 5.0 mM, 6.0 mM, 7.0 mM, 8.0 mM, 9.0 mM, or 10.0 mM) for 24 hours at 4° C. […] D-fructose (10 mM) was then added to the L-alanine-treated spores (this was time 0) and DPA levels were measured over time.

[5] = tested on: spores from Bacillus amyloliquefaciens strain SB3615; assay: Germinant testing by decrease in relative OD580
[6] = tested on: Bacillus megaterium strain SB3112 spores; assay: KBr pretreatment, germination by dipicolinic acid (DPA) release (Tlag, Gmax); assay type: cell-based
Protocol: as §1, §2
These studies were generally performed as described in Example 3. SB3112 spores, heat-activated or not heat-activated (not heat-activated are called “native”), were treated with 0.5, 3.0, or 10.0 mM KBr overnight at either 4° or 22° C. […] The time at which the subsequent addition was made to the spores was considered time 0. DPA concentration was measured over time.
To facilitate comparison of the different samples, values for Tlag and Gmax were calculated for each spore treatment. Tlag is the time after exposure to germinants that a population of spores begins to rapidly release DPA into the environment. Tlag indicates, in part, how rapidly a population of spores responds to germinants. Gmax is the maximum percentage of DPA that a sample releases during an experiment, divided by the DPA released by the sample when boiled. Gmax is proportional to the percentage of spores in a population that germinates.

## N[C@@H](Cc1c[nH]cn1)C(=O)O [L-histidine]
[1]
  Germination of spores (decrease in relative OD580): caused germination of the spores

## N[C@@H](Cc1ccccc1)C(=O)O [L-phenylalanine]
[1]
  Germination of spores (decrease in relative OD580): caused germination of the spores

## OC[C@H]1O[C@@](CO)(O[C@H]2O[C@H](CO)[C@@H](O)[C@H](O)[C@H]2O)[C@@H](O)[C@@H]1O [sucrose]
[2]
  Germination of spores (decrease in relative OD580): None

## O=C(O)[C@@H]1CCCN1 [L-proline]
[1]
  Germination of spores (decrease in relative OD580): caused germination of the spores

## N[C@@H](CS)C(=O)O [L-cysteine]
[2]
  Germination of spores (decrease in relative OD580): None

## CC(C)C[C@H](N)C(=O)O [L-leucine]
[1]
  Germination of spores (decrease in relative OD580): caused germination of the spores

## CC[C@H](C)[C@H](N)C(=O)O [L-isoleucine]
[1]
  Germination of spores (decrease in relative OD580): caused germination of the spores

## O=C(CO)[C@@H](O)[C@H](O)[C@H](O)CO [D-fructose]
[2]
  Germination of spores (decrease in relative OD580): None
[3]; 10 mM D-fructose, spores not treated with L-alanine
  Germination (DPA release) with D-fructose: did not germinate
[4]; 10 mM D-fructose, spores not treated with L-alanine (0 mM)
  Germination (DPA release) in presence of D-fructose: did not germinate

## C[C@H](N)C(=O)O [L-alanine]
[2]
  Germination of spores (decrease in relative OD580): None
[1]
  Germination of spores (decrease in relative OD580): caused germination of the spores
[3]; 1 mM L-alanine for 24 hours at 4° C., before D-fructose
  Germination as a result of the L-alanine treatment, determined by microscopy: No germination
[3]; L-alanine 24 hours, washed out prior to addition of D-fructose
  Germination (DPA release) when D-fructose was added: did not germinate
[3]; spores treated with 1 mM L-alanine for 24 hours, then 10 mM D-fructose
  Germination (DPA release) when D-fructose was added: germinated
[4]; 0.5-10.0 mM L-alanine for 24 hours at 4° C., before D-fructose
  Germination due to the L-alanine treatment, determined by microscopy: no germination
[4]; 0.5 to 10 mM L-alanine pretreatment, then 10 mM D-fructose
  Extent of germination versus amount of L-alanine: increased as the amount of L-alanine increased
[4]; spores treated with L-alanine 24 hours, then D-fructose (10 mM) at time 0
  Germination (DPA release) on addition of D-fructose: caused germination
[5]; strain SB3615, each substance 3 mM
  Molecules causing germination: L-alanine
[5]; substance alone, 3 mM, heat-activated spores, 37° C., 70 minutes
  Germination of spores (decrease in relative OD580): could cause germination

## [Br-].[K+] [KBr]
[6]; heat-activated spores, 0.5 mM KBr overnight at 4° C. before full germinant solution
  Gmax: 92%
[6]; heat-activated spores, 0.5 mM KBr overnight at 22° C. before full germinant solution
  Gmax: 65%
[6]; heat-activated spores, 3.0 mM KBr overnight at 4° C. before full germinant solution
  Gmax: 123%
[6]; heat-activated spores, 3.0 mM KBr overnight at 22° C. before full germinant solution
  Gmax: 65%
[6]; heat-activated spores, 10.0 mM KBr overnight at 4° C. before full germinant solution
  Gmax: 85%
[6]; heat-activated spores, 10.0 mM KBr overnight at 22° C. before full germinant solution
  Gmax: 61%
[6]; heat-treated spores, at 22° C., 0.5, 3.0, or 10.0 mM KBr
  Gmax as compared to spores not pretreated with KBr: decreased
[6]; native or heat-treated spores, at 4° C., 3.0 or 10.0 mM KBr
  Percentage of spores that germinated (Gmax) as compared to spores not pretreated with KBr: increased
[6]; native spores, 0.5 mM KBr overnight at 4° C. before full germinant solution
  Gmax: 24%
[6]; native spores, 0.5 mM KBr overnight at 22° C. before full germinant solution
  Gmax: 62%
[6]; native spores, 3.0 mM KBr overnight at 4° C. before full germinant solution
  Gmax: 31%
[6]; native spores, 3.0 mM KBr overnight at 22° C. before full germinant solution
  Gmax: 96%
[6]; native spores, 10.0 mM KBr overnight at 4° C. before full germinant solution
  Gmax: 29%
[6]; native spores, 10.0 mM KBr overnight at 22° C. before full germinant solution
  Gmax: 103%
[6]; some samples: 4° C. native spores 3.0 or 10.0 mM KBr, 22° C. heat-activated spores 0.5 mM KBr
  Tlag as compared to spores not pretreated with KBr: different
